Reference: patent US20150250864A1, “ANTI-CANCER VACCINES” (Board of Regents, The University of Texas System, priority 2012, published 2015)

Tested on: T cells from HLA A2+ normal donor
Assay: IFN-γ ELISPOT, T cells stimulated by 9-mer peptide pool-pulsed homologous B cells
Format: cell-based, human
From the text: FIGS. 12A-B. Identification of HLA-A2 T-cell specific peptides using anti-human IFN-γ ELISPOT with T cells from one HLA A2^+ normal donor. (FIG. 12A) T cells, stimulated by peptide pool-pulsed homologous B cells three (3rd T cells) or four (4th T cells) times were reactive with two pools from a HERV-K HLA A2^+9-mer peptide library (pool #1-11 and pool #12-22). NP is no peptide control. (FIG. 12B) Photographs of actual plates for FIG. 12A.
FIGS. 13A-B. Identification of HLA-A2 T cell specific epitopes using anti-human IFN-γ ELISPOT. T cells obtained from PBMC stimulated by peptide pool-pulsed homologous B cells three (3rd T cells) or four (4th T cells) times, were reactive with individual peptides. (FIG. 13A) Image of ELISPOT. (FIG. 13B) The code of peptides evaluated in ELISPOT assays.
FIGS. 14A-C. Summary of number of ELISPOTs from each individual peptide. Numbers of spots detected (pool 1-11, pool 12-22, and pool 23-33) in ELISPOTS with a single peptide are shown. NP contains no peptide (as control). (FIG. 14A) Summary of number of ELISPOTs from each individual peptide including #1, #2, #3, #5, #6, #7, #8, and #9, and peptide pool #1 to #11. (FIG. 14B) Summary of number of ELISPOTs from each individual peptide including #12, #13, #14, #15, #17, #18, #19, #20, #22 and peptide pool #12 to #22. (FIG. 14C) Summary of number of ELISPOTs from each individual peptide including #23, #24, #25, #26, #27, #28, #30, #31, #32, #33, and peptide pool #23 to #33. 4th T cells indicated the T cells had been stimulated with peptide pool 4 times and 3rd T cells indicated the T cells had been stimulated with peptide pool 3 times.
The inventor used epitope mapping to identify responses to HERV-K peptides in breast cancer patients. They chemically synthesized a HERV-K env nine amino acid (9mer) peptide library (33 HLA A2 restricted peptides) and overlapping 15mer peptide library (144 peptides). Preliminary research has identified two pools from the HERV-K env 9mer peptide library that contain potential CD8+ epitopes, using interferon gamma (IFN-γ) enzyme-linked immunosorbent spot (ELISPOT) assay with T cells from one HLA A2^+ normal donor which was stimulated with the 9mer peptide pool-pulsed homologous dendritic cells (DCs).
HLA-2+ patients were identified by flow cytometry using anti-A2 antibody. Activated B cells were cultured from PBMCs stimulated with irradiated 3T3-CD40L-expressing fibroblasts. Normal donor CD8+ T-cell lines were obtained from PBMCs stimulated with autologous activated B cells pulsed with peptide pools (peptides are in 3 pools: #1-11, #12-22, and #23-33); the stimulation was repeated for 3-4 cycles. HERV-K specific T cells generated from normal donor lines were tested for peptide reactivity using IFN-γ ELISPOT assays (FIGS. 12A-B).

Sequence | CD8 T epitope for HLA-A2 donors | IFN-γ ELISPOT spots with individual peptide (T cell stimulated 4 times with peptide pool #1 to 11) | IFN-γ ELISPOT spots with individual peptide (T cell stimulated 3 times with peptide pool #12 to 22) | IFN-γ ELISPOT spots with individual peptide (T cell stimulated 4 times with peptide pool #12 to 22)
YMLVVGNIV [HERVK-3] | may be CD8 T epitopes | numerous spots |  | 
IINLILILV [HERVK-18] | may be CD8 T epitopes |  | numerous spots | numerous spots
